Results on eleven compounds are retold here after patent US20250099494A1, “PHOSPHONIC ACID COMPOUND AND PRODRUG THEREOF, AND PREPARATION METHODS FOR AND USES OF PHOSPHONIC ACID COMPOUND AND PRODRUG THEREOF” (HAIHE BIOPHARMA CO., LTD., priority 2022, published 2025).

One data set addresses hENPP1-ECD-His (Homo sapiens (Human), UniProt P22413). The data set is described as follows: ENPP1 inhibitory activity, substrate 2',3'-cGAMP detection (AMP-Glo). The settings on record: read-out: c-GAMP (IC50, nM), inhibitory effect on ENPP1.
A short description of data set [1]: Pharmacokinetic test experiment of mice. The class given is in vivo, ICR mice. The settings on record: after oral administration. As for the experimental part:
1. In each administration mode, 9 healthy ICR mice male, weighing 30-35 g, were randomly divided into 3 groups (M1, M2, M3) with 3 mice in each group. […] Feeding uniformly 4 hours after administration.

The nature of data set [2]: Pharmacokinetic test experiment for rats. The class given is in vivo, SD rats. The settings on record: p.o. prodrug compound 7 (5 mg/kg) vs i.v. compound 1 (1 mg/kg). The protocol: 1. Six SD rats of 6-8 weeks old, male, were taken in each administration mode, and the tested compound was administered by gavage (5 mg/kg) and intravenous injection (1 mg/kg), respectively: fasting for 12 hours before the experiment and drinking water freely. Feeding uniformly 4 hours after administration.
Plasma collection and processing: at the above set time points, 150-200 μL of blood was collected via the plexus jugularis or a suitable part, placed in EDTA-K2 test tube, centrifuged at 3500 rpm for 10 min, plasma was separated, and frozen at −20° C. in a refrigerator.
LC/MS/MS method was used to determine the concentration of compounds in rats plasma. The pharmacokinetic parameters after administration were calculated using a non-compartmental model using Phoenix 8.3 software (Pharsight, USA).

Data set [3] is described as follows: Pharmacokinetic test experiment for dogs. The settings on record: beagle dogs, p.o. prodrug compound 7 (2 mg/kg) vs i.v. compound 1 (1 mg/kg). The protocol:
Feeding uniformly 4 hours after administration.
Blood was collected continuously, with 3 animals collected at each time point. Plasma collection and processing: at the above set time points, 1,000 μL of blood was collected via the plexus jugularis or a suitable part, placed in EDTA-K2 test tube, centrifuged at 3500 rpm for 10 min, plasma was separated, and frozen at −20° C. in a refrigerator.
LC/MS/MS method was used to determine the concentration of compounds in the beagle dogs plasma. The pharmacokinetic parameters after administration were calculated using a non-compartmental model using Phoenix 8.3 software (Pharsight, USA).

For data set [4] the following is noted: mice, reported by the literature; cited from earlier work.

Sequence of hENPP1-ECD-His (P22413 98-925): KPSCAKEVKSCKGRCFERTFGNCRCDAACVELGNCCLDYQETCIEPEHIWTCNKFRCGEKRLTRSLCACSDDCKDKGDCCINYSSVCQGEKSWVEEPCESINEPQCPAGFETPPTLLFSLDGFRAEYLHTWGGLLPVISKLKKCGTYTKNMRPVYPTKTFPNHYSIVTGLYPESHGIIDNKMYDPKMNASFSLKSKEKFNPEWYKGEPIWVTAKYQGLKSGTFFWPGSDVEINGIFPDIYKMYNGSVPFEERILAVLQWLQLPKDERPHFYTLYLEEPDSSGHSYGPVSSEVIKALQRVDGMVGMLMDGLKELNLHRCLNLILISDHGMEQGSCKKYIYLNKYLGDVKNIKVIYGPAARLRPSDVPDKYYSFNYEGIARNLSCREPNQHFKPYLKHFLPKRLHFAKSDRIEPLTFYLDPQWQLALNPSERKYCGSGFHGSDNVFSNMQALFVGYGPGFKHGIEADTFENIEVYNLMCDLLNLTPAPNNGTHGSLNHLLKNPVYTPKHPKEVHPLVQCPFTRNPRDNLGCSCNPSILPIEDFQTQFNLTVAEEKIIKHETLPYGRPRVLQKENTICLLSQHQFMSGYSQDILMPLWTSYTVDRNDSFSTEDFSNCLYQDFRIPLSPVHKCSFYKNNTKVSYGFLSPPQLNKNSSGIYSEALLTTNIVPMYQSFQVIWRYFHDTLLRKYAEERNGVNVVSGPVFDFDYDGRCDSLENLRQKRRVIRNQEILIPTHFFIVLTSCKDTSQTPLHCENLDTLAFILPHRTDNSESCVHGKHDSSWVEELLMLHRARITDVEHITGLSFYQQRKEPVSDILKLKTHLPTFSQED
Description for hENPP1-ECD-His: The ENPP1 inhibitory activity of the compound of the present disclosure was tested in substrate 2′,3′-cGAMP detection.
Experimental objective: based on the established experimental method, the inhibitory IC50 value of the compound in the present application on ENPP1 was detected using 2′,3′-cGAMP as the substrate.
2. Preparation of compound concentration gradient: the tested compound was dissolved in DMSO (dimethyl sulfoxide) to an initial concentration of 10 μM, diluted at 3 times, with 10 concentrations, single well or multi-well testing was set. […] The compound was diluted by gradient in a 384 well plate to a solution with the final concentration of 1000 times, and then 5 nL of the solution was transferred to a 384 well reaction plate for testing using Echo550.5 nL of 100% DMSO was transferred from the smallest well and the largest well.
6. The reaction solution was centrifuged at 1000 rpm for 1 minute and incubated at room temperature for 15 minutes.
7. 2.5 μL 2× substrate solution was added to each well of the reaction plate, centrifuged at 1000 rpm for 1 minute, and incubated at room temperature for 60 minutes.
8. 5 μL of R1 solution (from AMP-Glo™ Kit) was added to each well of the reaction plate, centrifuged at 1000 rpm for 1 minute and incubated at room temperature for 120 minutes.
9. 10 μL of R2 solution (from AMP-Glo™ Kit) was added to each well of the reaction plate, centrifuged at 1000 rpm for 1 minute and incubated at room temperature for 30 minutes.
The inhibition rate is calculated using the following formula: • inhibition rate %=(maximum signal−compound signal)/(maximum signal−minimum signal)×100 • wherein the “minimum signal” represents the mean value of the negative control well, and the “maximum signal” represents the mean value of the positive control well.
Using the log value of concentration as the X-axis and the percentage inhibition rate as the Y-axis, the dose-response curve was fitted using the log(inhibitor) vs. response-variable slope of analysis software GraphPadPrism5 to obtain the inhibitory IC50 value of the compound of the present disclosure on enzyme activity.

The IC50 is the concentration that gives 50% inhibition. Regarding `COc1ccc2c(Oc3c(F)cc(CP(=O)(O)O)cc3F)ccnc2n1` [Compound 3], the half-maximal inhibitory concentration (IC50) at hENPP1-ECD-His stood at 18 nM.

With `COc1ccc2c(Oc3cc(F)c(CP(=O)(O)O)c(F)c3)ccnc2n1` [Compound 5], the IC50 on hENPP1-ECD-His came to 11 nM.

As to `COc1ccc2c(Oc3cc(F)c(CP(=O)(O)O)cc3F)ccnc2n1` [Compound 6], the IC50 at hENPP1-ECD-His is 11 nM.

`COc1ccc2c(Oc3ccc(CP(=O)(OCOC(=O)C(C)(C)C)OCOC(=O)C(C)(C)C)cc3)ccnc2n1` [Compound 7]: the “time of conversion of prodrug to parent drug compound 1 in mice plasma” value in data set [1] is on record as at most 5 min. Besides, the results for the “Bioavailability Oral BA (% F)” value in data set [2] and in data set [3] were 40 % F and 21 % F, respectively.

With `COc1ccc2c(Oc3ccc(CP(=O)(OCOC(=O)OC(C)C)OCOC(=O)OC(C)C)cc3)ccnc2n1` [Compound 8], in data set [1], the “time of conversion of prodrug to parent drug compound 1 in mice plasma” value is at most 5 min.

With `COc1ccc2c(Nc3ccc(CP(=O)(O)O)cc3)ncnc2n1` [Compound 13], on hENPP1-ECD-His, the half-maximal inhibitory concentration (IC50) was found to be 0.94 nM.

Take `COc1ccc2c(Nc3ccc(CP(=O)(O)O)nc3)ccnc2n1` [Compound 20]: the IC50 on hENPP1-ECD-His was determined as 2.1 nM.

For the compound `COc1ccc2c(Nc3ccc(CP(=O)(O)O)cn3)ccnc2n1` [Compound 21], on hENPP1-ECD-His, the IC50 came to 5 nM.

With `COc1ccc2c(Oc3ccc(CCP(=O)(O)O)cc3)ccnc2n1` [Compound 23], the 50% inhibitory concentration (IC50) on hENPP1-ECD-His was determined as 37 nM.

For `COc1cc2ncnc(Nc3ccc(CP(=O)(O)O)cc3)c2cc1OC` [STF22, reference compound], the half-inhibitory concentration (IC50) on hENPP1-ECD-His was 63 nM.

Turning to `COc1cccc2c(N3CCC(CCP(=O)(O)O)CC3)ncnc12` [STF32, reference compound], the “half-life of injection administration T1/2” value in data set [4] is 14 min. In addition, the half-inhibitory concentration (IC50) at hENPP1-ECD-His was determined as 6.2 nM.
